These results are taken from patent publication US20240360150A1, “ISOINDOLINONE COMPOUNDS AND USES THEREOF” (HANGZHOU GLUBIO PHARMACEUTICAL CO. LTD., priority 2021, published 2024).

Holding throughout (type): cell-based
Test [1] has as its target T1, HiBiT-tagged IKZF1 (Homo sapiens, UniProt Q13422+Q96SW2).
T1 construct: expressed in transfected cells; host or cells: HT-1080 (ATCC CCL-121), lentiviral transduction
Put plainly: Degradation assay for IKZF1 (HiBiT tag bioluminescence assay). The note with it: HT-1080 IKZF1 HiBiT reporter cells; for DC50: read-out: HiBiT IKZF1: DC50. The method, then:
(§1) About 10,000 cells in complete DMEM cell culture media were seeded per well. Assay plates were incubated at 37° C. with 5% CO2 for hours, followed by the assessment of IKZF1 or SALL4 degradation using the Nano-Glo HiBiT Lytic Detection Reagent (Cat #N3050, Promega) according to the manufacturer's instruction. Luminescence was then measured with an EnVision plate reader (PerkinElmer) or a PHERAstar plate reader (BMG Labtech). All IKZF1 or SALL4 degradation curves were processed using Collaborative Drug Discovery Vault softwares. IKZF1 or SALL4 levels in compound-treated wells were normalized to that of DMSO control and expressed as Percent of Control (PoC, y). A four Parameter Logistic Model was used to determine the compound's EC50 and DC50, using the following equation:
(§2) A=Ymin (lowest IKZF1 or SALL4 level normalized to DMSO control in response to compound treatment, as determined by curve fit)
(§3) B=Ymax (IKZF1 or SALL4 level in DMSO control)
(§4) C=EC50 half degradation concentration
(§5) EC50=the concentration of compound when y=(Ymax−Ymin)/2
(§6) DC50=test sample concentration when IKZF1 or SALL4 readings y=50% DMSO-treated samples
(§7) y=IKZF1 or SALL4 readings after test sample treatment (normalized to IKZF1 or SALL4 readings in DMSO-treated samples)
(§8) Dmax represents the maximum percentage of IKZF1 or SALL4 protein degradation induced by compound treatment.
A general note: With HiBiT, luminescence reflects the tagged protein that the partner subunit can reach.

For a further test, the target named is T2, HiBiT-tagged SALL4 (Homo sapiens, UniProt Q96SW2+Q9UJQ4).
T2 construct: expressed in transfected cells; host or cells: HT-1080 (ATCC CCL-121), lentiviral transduction
Put plainly: Degradation assay for SALL4 (HiBiT tag bioluminescence assay). The note with it: HT-1080 SALL4 HiBiT reporter cells; for DC50: read-out: HiBiT SALL4: DC50. The method, then:
as §1, §2, §3, §4, §5, §6, §7, §8

Test [2] deals with T1, HiBiT-tagged IKZF1. As to the kind of experiment: IKZF1 protein degradation kinetics (IKZF1 HiBiT degradation assay, incubation 1, 2 or 4 hours). From the text:
The following is a general method for testing compounds-induced degradation of HiBiT-tagged IKZF1 or SALL4 overexpressed in a human cell line, for example, the HT-1080 cell line (American Type Culture Collection (ATCC), catalog number CCL-121). The HT-1080 IKZF1 (or SALL4) HiBiT reporter cell line was engineered via lentiviral transduction to stably overexpress GSPT1 (Δ1-138)/G575N and HiBiT-tagged IKZF1 or SALL4. The HT-1080 IKZF1 (or SALL4) HiBiT reporter cell line was maintained in DMEM media supplemented with 10% fetal bovine serum, IX sodium pyruvate, 1× non-essential amino acids, IX glutamine, 100 U/ml penicillin, and 100 μg/mL streptomycin. The HT-1080 IKZF1 (or SALL4) HiBiT reporter cells were seeded into 384-well plates (Cat #3764, Corning) pre-spotted with DMSO or test compounds. Increasing concentrations of test compounds (ranging from 15.81 pM to 500 nM or from 0.3162 nM to 10 μM at a 3.162-fold increment) or DMSO were dispensed into an empty 384-well plate using an Echo 650 Acoustic Liquid Handler (Beckman Coulter). About 10,000 cells in complete DMEM cell culture media were seeded per well. Assay plates were incubated at 37° C. with 5% CO2 for hours, followed by the assessment of IKZF1 or SALL4 degradation using the Nano-Glo HiBiT Lytic Detection Reagent (Cat #N3050, Promega) according to the manufacturer's instruction. Luminescence was then measured with an EnVision plate reader (PerkinElmer) or a PHERAstar plate reader (BMG Labtech). All IKZF1 or SALL4 degradation curves were processed using Collaborative Drug Discovery Vault softwares. IKZF1 or SALL4 levels in compound-treated wells were normalized to that of DMSO control and expressed as Percent of Control (PoC, y). A four Parameter Logistic Model was used to determine the compound's EC50 and DC50, using the following equation: […]
The IKZF1 protein degradation kinetics of compounds 9-B and 9-A was evaluated using the IKZF1 HiBiT degradation assay as described above except that the incubation time was changed to 1, 2 or 4 hours.

[3] abbreviates: HT-1080, Table 1, maximum percentage of protein degradation.
The mark [4] stands for this setting: Table 1, performed once with technical duplicates, some compounds tested on different days.
Setting [5] is: HT-1080, Table 2, all compounds tested on the same day.
Where [6] appears, read: Table 2, all compounds tested on the same day.
The mark [7] stands for this setting: after 1 hour of compound incubation.
[8] abbreviates: Table 1, maximum percentage of protein degradation.

Like-named read-outs stand apart in the source and are kept apart here. Some results are limits rather than exact numbers.

T1 sequence (Q13422 whole entry): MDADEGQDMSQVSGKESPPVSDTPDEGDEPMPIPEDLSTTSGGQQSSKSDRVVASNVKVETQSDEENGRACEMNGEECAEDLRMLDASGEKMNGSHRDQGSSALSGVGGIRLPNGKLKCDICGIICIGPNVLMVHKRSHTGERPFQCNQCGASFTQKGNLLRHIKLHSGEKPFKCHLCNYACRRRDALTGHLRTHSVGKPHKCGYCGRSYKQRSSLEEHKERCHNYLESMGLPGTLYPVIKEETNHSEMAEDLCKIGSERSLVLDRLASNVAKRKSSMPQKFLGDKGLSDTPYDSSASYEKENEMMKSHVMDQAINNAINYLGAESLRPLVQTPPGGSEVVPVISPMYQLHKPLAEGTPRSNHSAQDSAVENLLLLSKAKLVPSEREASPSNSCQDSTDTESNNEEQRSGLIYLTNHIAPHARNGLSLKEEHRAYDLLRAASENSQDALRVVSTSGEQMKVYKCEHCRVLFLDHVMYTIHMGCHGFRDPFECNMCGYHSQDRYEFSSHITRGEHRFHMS
T1 sequence (Q96SW2 whole entry): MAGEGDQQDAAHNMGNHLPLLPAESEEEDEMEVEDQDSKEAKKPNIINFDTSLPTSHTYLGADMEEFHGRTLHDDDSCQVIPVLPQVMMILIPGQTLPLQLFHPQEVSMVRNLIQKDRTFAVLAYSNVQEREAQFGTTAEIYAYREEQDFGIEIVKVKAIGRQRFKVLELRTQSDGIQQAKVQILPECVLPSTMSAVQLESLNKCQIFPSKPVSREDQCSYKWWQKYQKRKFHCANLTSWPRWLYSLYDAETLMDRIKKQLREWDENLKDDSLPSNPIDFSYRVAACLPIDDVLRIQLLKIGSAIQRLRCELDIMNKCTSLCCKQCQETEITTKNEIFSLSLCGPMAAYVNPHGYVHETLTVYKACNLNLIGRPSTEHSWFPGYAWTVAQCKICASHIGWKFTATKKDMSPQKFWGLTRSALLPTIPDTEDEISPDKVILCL
T1 sequence (Q16531 whole entry partner): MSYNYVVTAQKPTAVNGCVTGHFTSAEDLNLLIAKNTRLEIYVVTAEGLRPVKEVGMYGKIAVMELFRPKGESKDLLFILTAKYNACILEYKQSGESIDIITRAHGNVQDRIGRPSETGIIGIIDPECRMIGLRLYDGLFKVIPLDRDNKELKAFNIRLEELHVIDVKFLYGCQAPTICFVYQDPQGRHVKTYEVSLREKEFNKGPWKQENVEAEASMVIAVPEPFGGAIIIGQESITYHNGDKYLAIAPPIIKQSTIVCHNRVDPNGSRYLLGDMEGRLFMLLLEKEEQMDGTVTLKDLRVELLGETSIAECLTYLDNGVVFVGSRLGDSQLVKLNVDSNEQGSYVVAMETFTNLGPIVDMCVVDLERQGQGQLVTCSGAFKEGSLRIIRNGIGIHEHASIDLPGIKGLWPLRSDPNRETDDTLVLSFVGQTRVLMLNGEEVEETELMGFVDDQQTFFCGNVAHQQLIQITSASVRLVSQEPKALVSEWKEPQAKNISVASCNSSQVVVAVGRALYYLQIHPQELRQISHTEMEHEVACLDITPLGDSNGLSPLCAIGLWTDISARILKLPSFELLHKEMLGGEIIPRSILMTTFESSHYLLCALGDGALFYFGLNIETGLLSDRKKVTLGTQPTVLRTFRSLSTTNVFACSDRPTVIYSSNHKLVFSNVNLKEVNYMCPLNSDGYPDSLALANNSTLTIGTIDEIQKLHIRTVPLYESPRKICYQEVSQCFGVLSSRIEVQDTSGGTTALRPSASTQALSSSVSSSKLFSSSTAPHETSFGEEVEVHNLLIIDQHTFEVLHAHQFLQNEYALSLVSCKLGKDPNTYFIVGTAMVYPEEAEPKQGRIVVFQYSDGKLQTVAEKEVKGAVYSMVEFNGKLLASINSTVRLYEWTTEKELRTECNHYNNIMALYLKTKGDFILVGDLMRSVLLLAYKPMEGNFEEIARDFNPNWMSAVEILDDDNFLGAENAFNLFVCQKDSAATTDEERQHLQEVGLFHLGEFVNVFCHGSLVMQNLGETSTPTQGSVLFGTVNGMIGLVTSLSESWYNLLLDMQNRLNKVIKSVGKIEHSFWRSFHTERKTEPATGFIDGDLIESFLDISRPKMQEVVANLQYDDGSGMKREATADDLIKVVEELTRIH
T2 sequence (Q9UJQ4 whole entry): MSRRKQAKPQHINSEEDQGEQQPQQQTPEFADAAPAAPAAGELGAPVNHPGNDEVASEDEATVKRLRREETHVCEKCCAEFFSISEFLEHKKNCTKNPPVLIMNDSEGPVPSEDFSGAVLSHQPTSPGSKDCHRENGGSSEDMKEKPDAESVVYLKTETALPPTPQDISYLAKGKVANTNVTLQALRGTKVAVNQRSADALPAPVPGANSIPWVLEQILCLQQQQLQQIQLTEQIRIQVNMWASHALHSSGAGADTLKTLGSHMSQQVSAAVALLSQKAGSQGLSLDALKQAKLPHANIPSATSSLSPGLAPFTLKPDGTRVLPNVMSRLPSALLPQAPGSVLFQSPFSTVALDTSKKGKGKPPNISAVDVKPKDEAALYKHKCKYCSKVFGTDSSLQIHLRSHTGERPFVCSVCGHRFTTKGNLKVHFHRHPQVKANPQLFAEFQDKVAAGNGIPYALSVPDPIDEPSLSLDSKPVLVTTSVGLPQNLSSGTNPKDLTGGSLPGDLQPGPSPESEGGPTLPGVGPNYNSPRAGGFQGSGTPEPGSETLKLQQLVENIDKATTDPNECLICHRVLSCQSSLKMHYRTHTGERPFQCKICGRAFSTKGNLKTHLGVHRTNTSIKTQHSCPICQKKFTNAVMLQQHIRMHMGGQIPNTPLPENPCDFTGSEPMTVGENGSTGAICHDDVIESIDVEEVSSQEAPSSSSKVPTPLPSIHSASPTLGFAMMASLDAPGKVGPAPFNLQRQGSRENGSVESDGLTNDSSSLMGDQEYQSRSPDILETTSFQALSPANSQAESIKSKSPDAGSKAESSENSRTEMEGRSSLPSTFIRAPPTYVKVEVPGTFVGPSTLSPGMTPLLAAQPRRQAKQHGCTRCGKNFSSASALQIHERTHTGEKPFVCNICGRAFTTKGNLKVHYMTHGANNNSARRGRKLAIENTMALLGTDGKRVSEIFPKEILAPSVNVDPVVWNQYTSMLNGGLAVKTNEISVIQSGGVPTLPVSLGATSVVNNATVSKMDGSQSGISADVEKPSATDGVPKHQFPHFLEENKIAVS
T2 sequence (Q96SW2 whole entry): as the sequence (Q96SW2 whole entry) above
T2 sequence (Q16531 whole entry partner): as the sequence (Q16531 whole entry partner) above

For orientation: Dmax means the greatest extent of degradation seen. The low end stands for a partial loss of target, the high end for a fuller loss of target. As usually defined, the DC50 is the concentration giving 50% degradation. On to `O=C1CCC(N2C(=O)c3cc(F)cc4c(Cc5ccc(CN6CCOCC6)cc5F)ccc2c34)C(=O)N1` (stereo not drawn) [Compound 8], for which the Dmax on HiBiT-tagged IKZF1 [1] (setting [3]) stood at 75.2%; on HiBiT-tagged SALL4 (setting [3]) it was 34.9%. The results for the DC50 at HiBiT-tagged IKZF1 [1] (setting [4]) and at HiBiT-tagged SALL4 (setting [4]) were 2.37 nM and more than 10000 nM, respectively.
As to `O=C1CCC(N2C(=O)c3cc(F)cc4c(Cc5ccc(CN6CCOCC6)cc5)ccc2c34)C(=O)N1` (stereo not drawn) [Compound 12], the Dmax on HiBiT-tagged IKZF1 [1] (setting [3]) was determined as 69.3%; on HiBiT-tagged SALL4 (setting [3]) it was 32.5%. For the same compound, the values for the DC50 at HiBiT-tagged IKZF1 [1] (setting [4]) and on HiBiT-tagged SALL4 (setting [4]) were 5.89 nM and more than 10000 nM, respectively.
Regarding `N#Cc1ccc(N2CCN(Cc3ccc(Cc4ccc5c6c(cccc46)C(=O)N5C4CCC(=O)NC4=O)cc3)CC2)c(F)c1` (stereo not drawn) [Compound 20], the Dmax is 96.9% at HiBiT-tagged IKZF1 [1] (setting [5]) and 79.3% on HiBiT-tagged SALL4 (setting [5]). Further, the 50% degradation concentration (DC50) is 0.014 nM on HiBiT-tagged IKZF1 [1] (setting [6]) and less than 0.3 nM on HiBiT-tagged SALL4 (setting [6]).
Take `N#Cc1cnc2c(c1)OC[C@H]1CN(Cc3ccc(Cc4ccc5c6c(cc(F)cc46)C(=O)N5C4CCC(=O)NC4=O)c(F)c3)CCN21` (stereo partly drawn) [Compound 10]: the Dmax was found to be 88.3% at HiBiT-tagged IKZF1 [1] (setting [3]) and 29.4% on HiBiT-tagged SALL4 (setting [3]). Besides, the DC50 was 0.065 nM on HiBiT-tagged IKZF1 [1] (setting [4]) and more than 10000 nM at HiBiT-tagged SALL4 (setting [4]).
As to `N#Cc1ccc(N2CCN(Cc3ccc(Cc4ccc5c6c(cc(F)cc46)C(=O)N5[C@@H]4CCC(=O)NC4=O)cc3)CC2)c(F)c1` (single isomer, unassigned) [Compound 9-A], the Dmax at HiBiT-tagged IKZF1 [1] (setting [3]) was 89.9%; on HiBiT-tagged IKZF1 [1] (setting [5]) it was 93.1%; at HiBiT-tagged SALL4 (setting [3]), 55.2%; on HiBiT-tagged SALL4 (setting [5]), 57%; on HiBiT-tagged IKZF1 [2] (setting [7]) it was approximately 68%; at HiBiT-tagged IKZF1 [2] (after 4 hours of incubation) it was 88%. Also, the DC50 at HiBiT-tagged IKZF1 [1] (setting [4]) was 0.23 nM; at HiBiT-tagged IKZF1 [1] (setting [6]) it was 0.185 nM; at HiBiT-tagged SALL4 (setting [4]), 328 nM; on HiBiT-tagged SALL4 (setting [6]), 292 nM; on HiBiT-tagged IKZF1 [2] (setting [7]), approximately 8 nM; at HiBiT-tagged IKZF1 [2] (after 4 hours of incubation) it was 0.6 nM.
Regarding `CC(C)(C)N1CCN(Cc2ccc(Cc3ccc4c5c(cc(F)cc35)C(=O)N4C3CCC(=O)NC3=O)c(F)c2)CC1` (stereo not drawn) [Compound 13], the figures for the Dmax on HiBiT-tagged IKZF1 [1] (setting [3]) and on HiBiT-tagged SALL4 (setting [3]) were 87.3% and 49.1%, respectively. Moreover, the values for the DC50 on HiBiT-tagged IKZF1 [1] (setting [4]) and on HiBiT-tagged SALL4 (setting [4]) were 1.22 nM and more than 10000 nM, respectively.
The like results for `N#Cc1ccc2c(c1)OC[C@H]1CN(Cc3ccc(Cc4ccc5c6c(cc(F)cc46)C(=O)N5C4CCC(=O)NC4=O)cc3)CCN21` (stereo partly drawn) [Compound 1] were, in that order, 93.2%, 57.4%, 0.025 nM and 117 nM.
On to `N#Cc1ccc(N2CCN(Cc3ccc(Cc4ccc5c6c(cc(Br)cc46)C(=O)N5C4CCC(=O)NC4=O)cc3)CC2)c(F)c1` (stereo not drawn) [Compound 16], for which the Dmax on HiBiT-tagged IKZF1 [1] (setting [5]) was 92.2%; on HiBiT-tagged SALL4 (setting [5]) it was 65.8%. In addition, the DC50 at HiBiT-tagged IKZF1 [1] (setting [6]) was 1.23 nM; at HiBiT-tagged SALL4 (setting [6]), 772 nM.
As to `N#Cc1ccc2c(c1)OC[C@H]1CN(Cc3ccc(Cc4ccc5c6c(cccc46)C(=O)N5C4CCC(=O)NC4=O)cc3)CCN21` (stereo partly drawn) [Compound 5], at HiBiT-tagged IKZF1 [1] (setting [8]), the “HiBiT IKZF1: Dmax” value amounted to 94.1%. Further, the DC50 at HiBiT-tagged IKZF1 [1] (setting [4]) is 0.017 nM; on HiBiT-tagged SALL4 (setting [4]) it was 2 nM. For the same compound, on HiBiT-tagged SALL4 (setting [8]), the “HiBiT SALL4: Dmax” value was found to be 76.5%.
In the case of `O=C1CCC(N2C(=O)c3cccc4c(Cc5ccc(CN6CCOCC6)cc5)ccc2c34)C(=O)N1` (stereo not drawn) [Compound 19], the Dmax is 93.5% on HiBiT-tagged IKZF1 [1] (setting [5]) and 64.6% on HiBiT-tagged SALL4 (setting [5]). Besides, the DC50 worked out at 0.157 nM on HiBiT-tagged IKZF1 [1] (setting [6]) and 5.2 nM at HiBiT-tagged SALL4 (setting [6]).
